Data on nine compounds can be found in patent US20060078921A1, “Biomarkers and expression profiles for toxicology” (priority 2002, published 2006).

Data set [1] has as its system EGR1. Kind of data set: EGR-1 induction in rats (RT-PCR). It is filed as in vivo. The conditions noted are these: confirmed by RT-PCR. As for the experimental part:
Tolcapone (Tasmar) is a human hepatotoxin with no known toxicity in the rat.
§: The compounds were administered to the experimental animals three times, every 12 Hours. Animals were sacrificed 3 hours after the last administration. Shaded cells represent significant induction (threshold usually 2-fold induction).

Data set [2] deals with GADD-153. In words: RT-PCR of GADD-family genes in liver, GADD-153. Conditions: rat liver, in vivo. Set-up: species or system Wistar rats. The source says: (§1) The induction of these genes correlates with the histopathological findings in a time related fashion: While PEG-3 seems to be an early marker, GADD-45 and GADD-143 appear regulated at later time points, when the tissue damage is obvious by conventional endpoints.

Data set [3] concerns PEG-3. In words: RT-PCR of GADD-family genes in liver, PEG-3. On the set-up: species or system Wistar rats. The conditions noted are these: rat liver, in vivo.
From the text: as §1

Data set [4] deals with GADD-45. Kind of data set: RT-PCR of GADD-family genes in liver, GADD-45. Set-up: species or system Wistar rats. The conditions noted are these: rat liver, in vivo.
From the text: as §1

Data set [5] concerns liver. The conditions noted are these: man, cited from earlier work.
Data set [6] in a line: Classification of liver expression profiles with support vector machines. Set-up: species or system Wistar rats. The conditions noted are these: compounds not present in the initial training set, individual animals, 5 SVMs.
Protocol: Adult male Wistar rats were dosed in vivo and the resulting expression profile in liver was determined. SVMs were built for the discrimination between 3 different classes of hepatotoxicants, non-toxic substances and controls. The training set consisted of 180 gene expression profiles from individual animals treated with direct acting, cholestatic, steatotic, non-toxic compounds and corresponding vehicle-dosed controls. As a first step the chips were rescaled to a median value of 0 and a standard deviation of 1. Subsequently chips were presented to a linear kernel SVM (for classifier training the SVM software package from William Stafford Noble, Department of Computer Science, Columbia University, New York was used. Procedures for the Recursive Feature Elimination (RFE), automation of the whole training cycles and further data analysis were developed in house, using the PERL language.) Single binary classifiers for each category of chips were obtained by training one group against all others (‘One-vs-All’ training method). Multi-class classification for a given test chip was then carried out by combining the outputs of all binary classifiers. A leave-one-out cross validation procedure was applied to assess the quality of the trained machines with respect to the training data. […]
Data set [7] concerns candidate marker genes (Table 4). Kind of data set: RT-PCR of candidate marker genes to differentiate toxic and non-toxic 5-HT6 receptor antagonists (FIG. 10). It is filed as in vivo, Wistar rats. The conditions noted are these: rat liver, some of the selected genes.
Protocol: The regulation of the mRNA levels of several candidate genes (Table 4) was verified with quantitative RT-PCR. Specific primers for these genes have been designed in order to evaluate the expression with RT-PCR using SybrGreen assay (Table 6). For each performed RT-PCR reaction, the specificity of the assay was evaluated with dissociation curve software (Applied Biosystems), as well as by assessment of the size of the product using either gel electrophoresis or Agilent Bioanalyzer.
In a first step, the induction of the mRNA levels of 9 candidate genes (Table 5 and FIG. 10) was verified with quantitative PCR. […] As an internal control, the house-keeping gene glycernine-aldehyde-phosphate-dehydrogenase (GAPDH) was also analyzed.
The subject of data set [8] is AH-Receptor. Kind of data set: Affymetrix GeneChip liver expression, AH-R. It is filed as in vivo, Wistar rats. The conditions noted are these: rat liver, 24 H, control = 1.0.
Protocol: Male Wistar rats (generally 5 animals/dose-group) were purchased from BRL (Füllingsdorf, Switzerland) and housed individually. Treated animals were dosed either orally, intraperitoneally, or intravenously with several doses of test compounds (Table 1). […] Control animals received the same volume of vehicle as placebo. Necropsy was performed 6 or 24 hours after a single administration and liver samples from the left medial lobe were placed immediately in RNALater (Ambion, Tex., USA) for RNA extraction and gene expression analysis. Samples in RNALater were stored at −20° C. until further processing.
For RNA isolation from liver tissue, a portion of tissue of approximately 100 mg was transferred to a tube containing 1.2 ml RNAzol. […] Total RNA was isolated according to the manufacturer's instruction and quantified by measuring the optical density at 280 nm. The quality of RNA was assessed with gel electrophoresis. […]
After hybridization and scanning, the expression level of each gene was calculated by subtracting the fluorescence intensity of the mismatch probes from the match signal (=average difference) using the [sequence] […] Gene expression data were further analyzed with an in-house-developed data analysis tool (RACE-A, Hoffmann-La Roche, Basel, Switzerland). […] Analyzed data were stored in a toxicogenomics database (RACE-R, Hoffmann-La Roche, Basel, Switzerland). […]

In the case of `Cc1ccc(C(=O)c2cc(O)c(O)c([N+](=O)[O-])c2)cc1` [Tolcapone], the “induction of EGR1” value in data set [1] (high dose 300 mg/kg) was “slight induction”. As to `CC(=N)S` [Thioacetamide], in data set [2], the “induction of GADD-153 (RT-PCR)” value is on record as “induction”. The “induction of PEG-3 (RT-PCR)” value in data set [3] is “induction”. In data set [4], the “induction of GADD-45 (RT-PCR)” value is “induction”. As for `O=[N+]([O-])c1ccc(O)c([N+](=O)[O-])c1` [dinitrophenol, Dinitrophenol], the “induction of EGR1” value in data set [1] (10 and 30 mg/kg) is “slight induction”.

On to `CN(C)CCCN1c2ccccc2Sc2ccc(Cl)cc21` [Chlorpromazine], for which the “treated patients who develop jaundice” value in data set [5] was “Up to 1%”. Consider `Clc1ccccc1Cl` [1,2-dichlorobenzene], for which the “induction of GADD-153 (RT-PCR)” value in data set [2] is on record as “induction”. For the same compound, the “induction of PEG-3 (RT-PCR)” value in data set [3] was “induction”. In data set [4], the “induction of GADD-45 (RT-PCR)” value is reported as “induction”. In data set [6], the “SVM classification of compound class from liver expression profiles” value was “direct acting compound”. With `Nc1ccc(S(=O)(=O)c2cc(Br)nc(N3CCCC3)c2)cc1` [Ro66-0074, 4-(2-Bromo-6-pyrrolidin-1-yl-pyridine-4-sulfonyl)-phenylamine], in data set [7], the “expression levels of selected marker genes (RT-PCR, FIG. 10)” value was “slight induction”. The “AH-R Affymetrix” value in data set [8] is on record as 1.0. As to `O=C(O)CCCCCCNC1c2ccccc2CCc2ccccc21` [amineptine], the “SVM classification of compound class from liver expression profiles” value in data set [6] is on record as “steatotic compound”. Regarding `NN` [Hydrazine], the “induction of GADD-153 (RT-PCR)” value in data set [2] was “induction”. Besides, the “induction of PEG-3 (RT-PCR)” value in data set [3] is listed as “induction”. Also, in data set [4], the “induction of GADD-45 (RT-PCR)” value was “induction”. As for `Nc1c2c(nc3ccccc13)CCCC2` [Tacrine], the “incidence of hepatotoxicity in treated patients” value in data set [5] (Alzheimer's disease patients) is reported as 40-50%.
